In patent US7098307B2, “Neo-tryptophan” (Mayo Foundation for Medical Education and Research, priority 1998, dated 2006):
Where “and” joins values, the source holds several entries; their conditions need not be identical. Identical values can stand only once. Square brackets hold non-standard residues; d marks the D form. Peptide text beside a SMILES is read from it. Ala(indol-4-yl) = N[C@@H](Cc1cccc2[nH]ccc12)C(=O)O; NMeR = CN[C@@H](CCCNC(=N)N)C(=O)O; Tle = CC(C)(C)[C@H](N)C(=O)O

Experiments:
[1] = Degradation in human plasma (HPLC peak area); assay type: in vitro ADME; details: human; 25% plasma, 37° C., 0.5 mg/mL polypeptide; read-out: half-time, Plasma Human (converted)
Description: (§1) For the degradation studies, data were plotted in linear form as a semi-log plot with SigmaPlot for Windows Version 4.00. Linear regression on these plots provided the parameters used to calculate the half-time (t1/2) for degradation of each polypeptide. The correlation coefficient (R) for the linear regression was taken as a measure of the goodness-of-fit.

[2] = Degradation in rat plasma (HPLC peak area); assay type: in vitro ADME; details: 25% plasma, 37° C., 0.5 mg/mL polypeptide, read-out: half-time, Plasma Rat (converted)
Description: as §1

α2-adrenergic receptors = assay: Radiolabeled competitive binding, human brain tissue, adrenergic α2
[3] = Catalepsy bar test in rats; assay type: in vivo, rat
Description: The following experiments were performed to assess the ability of NT69L to cause and influence catalepsy. Male Sprague-Dawley rats (150–250 g) or CD-1 mice (24–26 g) were housed in a temperature-controlled room in groups of five with free access to food and water. The animals were kept on a 12 hour light/dark cycle, and all tests were performed during the light cycle. […] Thirty minutes after injection, the animals were tested for catalepsy. For rats, the test involved simply placing the animal's fore paws on a suspended metal bar 10 mm in diameter, 11 cm above the counter. The time elapsed until the animal's fore paws touch the counter was recorded. […] The cut-off time was 20 seconds, and each animal was tested three times for each time point.

[4] = Catalepsy (fixed rearing posture) in mice; assay type: in vivo; details: 5 mg/kg ip
Description: The following experiments were performed to assess the ability of NT69L to cause and influence catalepsy. Male Sprague-Dawley rats (150–250 g) or CD-1 mice (24–26 g) were housed in a temperature-controlled room in groups of five with free access to food and water. The animals were kept on a 12 hour light/dark cycle, and all tests were performed during the light cycle. The test for catalepsy is well established and quite simple (Munkvad et al., Brain Behav. Evol. 1:89–100(1968)). […] Thirty minutes after injection, the animals were tested for catalepsy. For rats, the test involved simply placing the animal's fore paws on a suspended metal bar 10 mm in diameter, 11 cm above the counter. The time elapsed until the animal's fore paws touch the counter was recorded. […] For mice, catalepsy was scored based on the time that the mice maintained a fixed rearing posture against the side of the cage (Adams et al., Proc. Natl. Acad. Sci. USA 94:12157–12161 (1997)). The cut-off time was 20 seconds, and each animal was tested three times for each time point.

[5] = Body weight and food intake in rats; assay type: in vivo, rat; details: for increase from original body weight at day 15: saline 29%
Description: Two groups of male Sprague-Dawley rats (small and large) and one group of genetically obese Zucker rats were used to study the influence of NT69L on various aspects of body weight. The group of small Sprague-Dawley rats weighed about 270 g at the beginning of the study, while the group of large Sprague-Dawley rats weighted about 400 g. […] The rats had free access to commercial hard rat chow pellets and tap water. During the study, the rats received 100 μL of either saline only or 1 μg/kg, 10 μg/kg, or 1 mg/kg of NT69L on days 1, 2, 7, 8, 11, and 12. Food intake (g), water consumption (mL), and body weight (g) were recorded daily for 15 days. The results were presented as mean ± SEM, or as % of original weight. The data were compared by variance analysis (unpaired or paired Student's t test) and Rank sum test.

[6] = Blood glucose and hormone levels in rats; assay type: in vivo, rat; details: 1 mg/kg ip
[7] = Body temperature (hypothermia) in rats; details: for change in body temperature: 5 mg/kg ip
5HT2A receptor = 5HT2A receptor (Homo sapiens, UniProt P28223); assay: Competitive binding with [3H]ketanserin, human brain tissue

## CN[C@@H](CCCNC(=N)N)C(=O)N[C@@H](CCCCN)C(=O)N1CCC[C@H]1C(=O)N[C@@H](Cc1cccc2[nH]ccc12)C(=O)N[C@H](C(=O)N[C@@H](CC(C)C)C(=O)O)C(C)(C)C [NT69L] (H-[NMeR]KP[Ala(indol-4-yl)][Tle]L-OH; N-terminus and C-terminus assumed)
[1]
  half-life at 0.5 mg/mL: 20.8 days
[2]
  half-life at 0.5 mg/mL: 10.4 days
α2-adrenergic receptors
  Kd: 58.6 µM
[3]; 5 mg/kg ip
  catalepsy scores in rats: no effect on catalepsy scores
[3]; 5 mg/kg ip 30 minutes after haloperidol 1 mg/kg ip
  haloperidol-induced catalepsy, test compound given after: reversed
[3]; 5 mg/kg ip 30 minutes before haloperidol 1 mg/kg ip
  haloperidol-induced catalepsy, test compound given before: did not exhibit significant cataleptic behavior
[3]; after the third and fourth days of NT69L 1 mg/kg ip
  catalepsy on haloperidol injection after chronic treatment: exhibited catalepsy
[3]; haloperidol 120 μg/kg ip, NT69L ip 40 minutes later, scored at 130 minutes
  ED50 reversal of haloperidol-induced catalepsy: 0.26 mg/kg
[4]
  catalepsy in mice: caused no catalepsy
[5]; Zucker rats, one to two days post injection
  food intake versus saline controls: significantly reduced
[5]; genetically obese Zucker rats, 1 mg/kg ip, saline 31%
  increase in original body weight by day 15: 25%
[5]; large Sprague-Dawley rats, 1 mg/kg ip, saline […] increase
  reduction in original body weight by day 15: 3.0%
[5]; large Sprague-Dawley rats, one to two days post injection
  food intake versus saline controls: significantly (P<0.003) less
[5]; small Sprague-Dawley rats, 1 μg/kg ip
  increase from original body weight at day 15: 9.0%
[5]; small Sprague-Dawley rats, 10 μg/kg ip
  increase from original body weight at day 15: 8.4%
[5]; small Sprague-Dawley rats, throughout the experiment
  food intake versus saline controls: significantly (P<0.003) less
[6]; Sprague-Dawley rats, one hour post injection, saline 2.6
  T4 level: 1.8 µg/dL
[6]; Sprague-Dawley rats, one hour post injection, saline 6.1
  corticosterone level: 24.6 µg/dL
[6]; Sprague-Dawley rats, one hour post injection, saline 7.65
  TSH level: 0.9 mIU/L
[6]; Sprague-Dawley rats, one hour post injection, saline 130
  glucose level: 221 mg/dL
[6]; Zucker rats, one hour after injection, control 1.47
  T4: 1.03 µg/dL
[6]; Zucker rats, one hour after injection, control 1.9
  TSH: 0.43 mIU/L
[6]; Zucker rats, one hour after injection, control 10.9
  corticosterone: 19.7 µg/dL
[6]; Zucker rats, one hour after injection, control 140
  blood glucose: 310 mg/dL
[7]; 1 mg/kg intraperitoneal
  time up to which body temperature reduction remained significant: up to 300 minutes
[7]; 1 mg/kg intraperitoneal, rats
  Peak BT change: −5.3 °C and −5.3 @ ° C.
[7]; 1 mg/kg ip daily, day 1
  body temperature lowering after the first injection: about 4 degrees
[7]; 1 mg/kg ip daily, day 2
  body temperature lowering after the second injection: 1.5 degrees
[7]; 1 mg/kg ip daily, day 3
  body temperature lowering after the third injection: no body temperature lowering was detected
[7]; 5 mg/kg ip after four days at 1 mg/kg ip
  reduction in body temperature on 5× challenge: comparable to the reduction normally observed in naive rats
[7]; 30 minutes after injection
  change in body temperature: about −3 °C
[7]; 77 minutes after injection
  change in body temperature: about −4 °C
[7]; intraperitoneal administration (NT64L 1 mg/kg)
  induction of hypothermia: did induce
[7]; intraperitoneal, @ 90 min
  ED50 BT: 0.4 mg/kg
[7]; intraperitoneal, dose not restated
  peak reduction in body temperature: 5.3 °C
[7]; ip, at 90 minutes
  ED50 body temperature lowering: 0.39 mg/kg
[7]; nasal, 5 mg/kg, at 30 minutes
  peak reduction in body temperature (change): −1.4 °C
[7]; oral, 20 mg/kg
  peak reduction in body temperature (change): −0.63 °C
  time of peak reduction in body temperature: 60 min
5HT2A receptor
  Kd: 34.6 µM
